# Measured values from article PMC10600247, “Impact of C- and N-terminal protection on the stability, metal chelation and antimicrobial properties of calcitermin” (Scientific Reports, 2023).
# Residues, ends and D or L forms follow the SMILES beside them.
# Legend:
# [1] = tested on: S. aureus (ATCC 25293); experiment: In vitro anti-S. aureus CFU assay; type: cell-based, Staphylococcus aureus; conditions: 3 h, pH 5.4; for mean CFU number ± S.D.: per 0.1 mL
# Description: All microbes were grown at 37 °C in Tryptic Soy Broth (TSB; Biolife, Milan, Italy) or Tryptic Soy Agar plates (TSA, Biolife, Milan, Italy). Peptides were tested at a final concentration C = 0.128, 0.064, 0.032 mg/mL, in the presence or absence of ZnCl2 or CuCl2, at a M:L molar ratio 0.9:1. Briefly, all the microbes were expanded in TSB at 37 °C under agitation for 12 h and then sub-cultured by 1:10 dilution in TSB under the same conditions until reaching OD600nm = 0.3–0.4, as measured by spectrophotometric reading using a GENESYS 10S UV–Vis spectrophotometer (Thermo Scientific, Milan, Italy), corresponding to 0.9–1.2 × 10^7 colony forming units (CFU) per mL, 1.5–2 × 10^8 CFU/mL and 2.4–3.2 × 10^8 CFU/mL, for C. albicans, S. aureus and E. coli respectively. The cultures were then centrifuged at 4500 rpm for 10 min in a SL 8 centrifuge (TX-150 Rotor) (Thermo Scientific, Milan, Italy), and the cellular pellets were washed with PBS pH 5.4. Pelletized cultures were then suspended in 10 mL of PBS pH 5.4, then the suspensions were diluted to a final concentration of 10^4 CFU/mL. Aliquots of 100 µl (corresponding to 10^3 CFU) were seeded in each well of a 96-wells plate. 3 µl of TSB at pH 5.4 were added to each well to obtain a final 1.5% TSB concentration in the culture medium. Peptides were serially diluted in PBS pH 5.4 to C = 0.257, 0.128, and 0.064 mg/mL. ZnCl2 and CuCl2 solutions were added where requested to obtain a M:L ratio 0.9:1. 100 µl of the prepared peptides ± ZnCl2/CuCl2 solutions were then added to each well, obtaining the final 0.128, 0.064 and 0.032 mg/mL peptide concentrations in a total 0.2 mL volume. PBS alone and PBS + ZnCl2/CuCl2 solutions were included as controls. The plates were incubated at 37 °C on a platform rocker with slow stirring for 3 and 24 h. At the end of the incubation times, 100 µl aliquots were taken from each sample and diluted in PBS pH 5.4 to be seeded on TSA plates. Specifically, aliquots were diluted 1:10 at 3 h, and 1:200, 1:100,000 and 1:10 at 24 h, for C. albicans, E. coli, and S. aureus respectively. After incubation for 24 h at 37 °C, grown CFUs were enumerated. Samples were assayed in triplicate in two independent experiments. Student’s t-test was used for the evaluation of significance in biological tests; a p value ≤ 0.05 was considered significant.
# [2] = Potentiometry: protonation of the ligand; type: physicochemical; conditions: T = 298 K, I = 0.1 M (KCl)
# From the text: Stability constants for proton and metal complexes were obtained from pH-metric titration curves registered at T = 298 K and ionic strength 0.1 M (KCl). The potentiometric apparatus was previously described. Solutions were titrated with 0.1 M carbonate-free KOH. The electrode was daily calibrated for hydrogen ion concentration by titrating HNO3 with the standard base solution, under the same experimental conditions as above. The asymmetry potential and the slope of the electrode couple were computed by means of […][41] and Glee[42] programs. The purities and exact concentrations of the ligand solutions were determined by the Gran method. The […][44] program was employed for the overall formation constant (β) calculations, referred to the following equilibrium equation: pM + qL + rH ⇆ MpLqHr (charges omitted; p is 0 in the case of ligand protonation; r can be negative). The computed standard deviations (referring to random errors only) were given by the program itself and are shown in parentheses as uncertainties on the last significant figure. Hydrolysis constants for metal ions were taken from the literature[45],[46]. The distribution and competition diagrams were computed using the HYSS program.
# 1. Wild-type calcitermin: thermodynamic data
# Wild-type calcitermin (WT) has been previously investigated by our research group in aqueous solutions and ionic medium NaClO4.1 For the sake of comparison, potentiometric studies of WT and its copper and zinc complexes have been performed in a different ionic medium (KCl 0.1 M). The study of the speciation under different experimental conditions, changing ionic medium and metal-ligand ratio, is essential to comprehensively describe the thermodynamics of calcitermin, which is usually found in multicomponent media like biological fluids.
# Table S1. Equilibrium constants for protonation of WT and its Cu2+ and Zn2+ complex formation at T = 298 K and I = 0.1 M (KCl). Values in parentheses are standard deviations on the last significant figure.
# [3] = peptide 0.032 mg/mL + CuCl2 (0.9:1)
# [4] = peptide 0.032 mg/mL + ZnCl2 (0.9:1)
# [5] = peptide 0.064 mg/mL + CuCl2 (0.9:1)
# [6] = peptide 0.064 mg/mL + ZnCl2 (0.9:1)
# [7] = peptide 0.128 mg/mL + CuCl2 (0.9:1)
# [8] = peptide 0.128 mg/mL + ZnCl2 (0.9:1)
structure (smiles),measurement,setting,value
"CC[C@H](C)[C@H](NC(=O)[C@H](C)NC(=O)[C@@H](NC(C)=O)C(C)C)C(=O)N[C@@H](C)C(=O)N[C@@H](CC(C)C)C(=O)N[C@@H](CCCCN)C(=O)N[C@@H](C)C(=O)N[C@@H](C)C(=O)N[C@@H](Cc1c[nH]cn1)C(=O)N[C@@H](Cc1ccc(O)cc1)C(=O)N[C@@H](Cc1c[nH]cn1)C(=O)N[C@H](C(=O)N[C@@H](Cc1c[nH]cn1)C(=O)N[C@@H](CCCCN)C(=O)N[C@@H](CCC(=O)O)C(=O)O)[C@@H](C)O [L1, Ac-VAIALKAAHYHTHKE] (Ac-VAIALKAAHYHTHKE-OH)",CFU decrease/increase with respect to untreated controls,[1]; [3],+20%
same,mean CFU number ± S.D.,[1]; [3],193 ± 54 CFU
same,CFU decrease/increase with respect to untreated controls,[1]; [4],+14%
same,mean CFU number ± S.D.,[1]; [4],183 ± 24 CFU
same,CFU decrease/increase with respect to untreated controls,[1]; [5],+37%
same,mean CFU number ± S.D.,[1]; [5],221 ± 66 CFU
same,CFU decrease/increase with respect to untreated controls,[1]; [6],+19%
same,mean CFU number ± S.D.,[1]; [6],191 ± 6 CFU
same,CFU decrease/increase with respect to untreated controls,[1]; [7],+3%
same,mean CFU number ± S.D.,[1]; [7],166 ± 35 CFU
same,mean CFU number ± S.D.,[1]; [8],87 ± 8 CFU
same,CFU decrease/increase with respect to untreated controls,[1]; peptide alone 0.032 mg/mL,+34%
same,mean CFU number ± S.D.,[1]; peptide alone 0.032 mg/mL,215 ± 68 CFU
same,CFU decrease/increase with respect to untreated controls,[1]; peptide alone 0.064 mg/mL,-4%
same,mean CFU number ± S.D.,[1]; peptide alone 0.064 mg/mL,155 ± 31 CFU
same,CFU decrease/increase with respect to untreated controls,[1]; peptide alone 0.128 mg/mL,+31%
same,mean CFU number ± S.D.,[1]; peptide alone 0.128 mg/mL,211 ± 49 CFU
"CC[C@H](C)[C@H](NC(=O)[C@H](C)NC(=O)[C@@H](NC(C)=O)C(C)C)C(=O)N[C@@H](C)C(=O)N[C@@H](CC(C)C)C(=O)N[C@@H](CCCCN)C(=O)N[C@@H](C)C(=O)N[C@@H](C)C(=O)N[C@@H](Cc1c[nH]cn1)C(=O)N[C@@H](Cc1ccc(O)cc1)C(=O)N[C@@H](Cc1c[nH]cn1)C(=O)N[C@H](C(=O)N[C@@H](Cc1c[nH]cn1)C(=O)N[C@@H](CCCCN)C(=O)N[C@@H](CCC(=O)O)C(N)=O)[C@@H](C)O [L2, Ac-VAIALKAAHYHTHKE-NH2] (Ac-VAIALKAAHYHTHKE-NH2)",CFU decrease/increase with respect to untreated controls,[1]; [3],-17%
same,mean CFU number ± S.D.,[1]; [3],129± 41 CFU
same,CFU decrease/increase with respect to untreated controls,[1]; [4],0%
same,mean CFU number ± S.D.,[1]; [4],177 ± 11 CFU
same,CFU decrease/increase with respect to untreated controls,[1]; [5],-18%
same,mean CFU number ± S.D.,[1]; [5],127 ± 30 CFU
same,CFU decrease/increase with respect to untreated controls,[1]; [6],-17%
same,mean CFU number ± S.D.,[1]; [6],147 ± 16 CFU
same,CFU decrease/increase with respect to untreated controls,[1]; [7],+6%
same,mean CFU number ± S.D.,[1]; [7],194 ± 4 CFU
same,mean CFU number ± S.D.,[1]; [8],82 ± 16 CFU
same,CFU decrease/increase with respect to untreated controls,[1]; peptide alone 0.032 mg/mL,-12%
same,mean CFU number ± S.D.,[1]; peptide alone 0.032 mg/mL,157 ± 35 CFU
same,CFU decrease/increase with respect to untreated controls,[1]; peptide alone 0.064 mg/mL,+14%
same,mean CFU number ± S.D.,[1]; peptide alone 0.064 mg/mL,201 ± 40 CFU
same,CFU decrease/increase with respect to untreated controls,[1]; peptide alone 0.128 mg/mL,+21%
same,mean CFU number ± S.D.,[1]; peptide alone 0.128 mg/mL,213 ± 23 CFU
"CC[C@H](C)[C@H](NC(=O)[C@H](C)NC(=O)[C@@H](N)C(C)C)C(=O)N[C@@H](C)C(=O)N[C@@H](CC(C)C)C(=O)N[C@@H](CCCCN)C(=O)N[C@@H](C)C(=O)N[C@@H](C)C(=O)N[C@@H](Cc1c[nH]cn1)C(=O)N[C@@H](Cc1ccc(O)cc1)C(=O)N[C@@H](Cc1c[nH]cn1)C(=O)N[C@H](C(=O)N[C@@H](Cc1c[nH]cn1)C(=O)N[C@@H](CCCCN)C(=O)N[C@@H](CCC(=O)O)C(N)=O)[C@@H](C)O [L3, VAIALKAAHYHTHKE-NH2] (H-VAIALKAAHYHTHKE-NH2)",CFU decrease/increase with respect to untreated controls,[1]; [3],+6%
same,mean CFU number ± S.D.,[1]; [3],187 ± 13 CFU
same,CFU decrease/increase with respect to untreated controls,[1]; [4],-6%
same,mean CFU number ± S.D.,[1]; [4],167 ± 22 CFU
same,CFU decrease/increase with respect to untreated controls,[1]; [5],-2%
same,mean CFU number ± S.D.,[1]; [5],173 ± 69 CFU
same,CFU decrease/increase with respect to untreated controls,[1]; [6],-50%
same,mean CFU number ± S.D.,[1]; [6],88 ± 18 CFU
same,mean CFU number ± S.D.,[1]; [7],94 ± 2 CFU
same,mean CFU number ± S.D.,[1]; [8],48 ± 8 CFU
same,CFU decrease/increase with respect to untreated controls,[1]; peptide alone 0.032 mg/mL,-28%
same,mean CFU number ± S.D.,[1]; peptide alone 0.032 mg/mL,127 ± 64 CFU
same,mean CFU number ± S.D.,[1]; peptide alone 0.064 mg/mL,101 ± 30 CFU
same,mean CFU number ± S.D.,[1]; peptide alone 0.128 mg/mL,91 ± 12 CFU
"CC[C@H](C)[C@H](NC(=O)[C@H](C)NC(=O)[C@@H](N)C(C)C)C(=O)N[C@@H](C)C(=O)N[C@@H](CC(C)C)C(=O)N[C@@H](CCCCN)C(=O)N[C@@H](C)C(=O)N[C@@H](C)C(=O)N[C@@H](Cc1c[nH]cn1)C(=O)N[C@@H](Cc1ccc(O)cc1)C(=O)N[C@@H](Cc1c[nH]cn1)C(=O)N[C@H](C(=O)N[C@@H](Cc1c[nH]cn1)C(=O)N[C@@H](CCCCN)C(=O)N[C@@H](CCC(=O)O)C(=O)O)[C@@H](C)O [WT, VAIALKAAHYHTHKE, reference compound] (H-VAIALKAAHYHTHKE-OH)",protonation logK H2L,[2],10.53
same,protonation logK H3L,[2],9.50
same,protonation logK H4L,[2],7.73
same,protonation logK H5L,[2],6.93
same,protonation logK H6L,[2],6.33
same,protonation logK H7L,[2],5.65
same,protonation logK H8L,[2],4.22
same,protonation logK H9L,[2],2.93
same,protonation logK HL,[2],10.61
same,protonation logβ H2L,[2],21.14(2)
same,protonation logβ H3L,[2],30.64(4)
same,protonation logβ H4L,[2],38.38(4)
same,protonation logβ H5L,[2],45.31(4)
same,protonation logβ H6L,[2],51.64(4)
same,protonation logβ H7L,[2],57.29(4)
same,protonation logβ H8L,[2],61.51(4)
same,protonation logβ H9L,[2],64.44(5)
same,protonation logβ HL,[2],10.61(6)
same,CFU decrease/increase with respect to untreated controls,[1]; [3],+30%
same,mean CFU number ± S.D.,[1]; [3],209 ± 44 CFU
same,CFU decrease/increase with respect to untreated controls,[1]; [4],+5%
same,mean CFU number ± S.D.,[1]; [4],169 ± 40 CFU
same,CFU decrease/increase with respect to untreated controls,[1]; [5],+9%
same,mean CFU number ± S.D.,[1]; [5],175 ± 30 CFU
same,CFU decrease/increase with respect to untreated controls,[1]; [6],-14%
same,mean CFU number ± S.D.,[1]; [6],139 ± 20 CFU
same,CFU decrease/increase with respect to untreated controls,[1]; [7],+42%
same,mean CFU number ± S.D.,[1]; [7],229 ± 55 CFU
same,CFU decrease/increase with respect to untreated controls,"[1]; peptide 0.128 mg/mL + ZnCl2 (0.9:1), listed as WT calcitermin",-41%
same,mean CFU number ± S.D.,[1]; [8],96 ± 21 CFU
same,CFU decrease/increase with respect to untreated controls,[1]; peptide alone 0.032 mg/mL,-9.3%
same,mean CFU number ± S.D.,[1]; peptide alone 0.032 mg/mL,146 ± 7 CFU
same,CFU decrease/increase with respect to untreated controls,[1]; peptide alone 0.064 mg/mL,-1.2%
same,mean CFU number ± S.D.,[1]; peptide alone 0.064 mg/mL,159 ± 45 CFU
same,CFU decrease/increase with respect to untreated controls,[1]; peptide alone 0.128 mg/mL,-1.8%
same,mean CFU number ± S.D.,[1]; peptide alone 0.128 mg/mL,158 ± 59 CFU
